Measurements from PMC8066331, “Anticancer Activity of Triazolo-Thiadiazole Derivatives and Inhibition of AKT1 and AKT2 Activation” (Pharmaceutics, 2021).

Key:
DU-145 = experiment: MTT in vitro antiproliferative assay, DU-145; assay type: cell-based, human; details: DU-145, MTT; for TGI / GI50: 48 h drug exposure; for IC50 / GI50: Homo sapiens; for IC50: 48 h, 50% cell death, read-out: IC50; for GI50: read-out: GI50
Source text: (§1) The in vitro antiproliferative activities of the novel triazolo[3,4-b]thiadiazole derivatives were estimated in ten well-established human cancer cell lines including three ovarian (SKOV-3, UWB 1.289, and UWB 1.289+BRCA1), five colorectal adenocarcinoma (DLD-1, HT-29, LS174T, LoVo, and SW403), and two prostate cancer cell lines (PC-3 and DU-145). All cancer cell lines were obtained from the American Type Culture Collection (ATCC) and cultivated in different culture media according to the instructions. The required growth mediums were supplemented with 10% fetal bovine serum and 1% streptomycin/penicillin. All cancer cell lines were cultured as monolayers and maintained at 37 °C, 5% CO2 in humidified air.
(§2) Stock solutions of all tested compounds were prepared by dissolving the required amount of substances in the DMSO solvent to reach the desired concentration of 15 mM.
(§3) To evaluate the in vitro antiproliferative activity of the triazolo[3,4-b]thiadiazole derivatives, 3-(4,5-dimethylthiazol-2-yl)-2,5-diphenyltetrazolium bromide (MTT) assay was assessed. According to the protocol, cells were firstly seeded into a 96-well plate at a density of 8 × 10^3 cells and grown for 24 h at 37 °C, 5% CO2 in humidified air. Subsequently, cells were treated with the tested compounds in a specific range of drug concentrations (1–100 μΜ). Following 48 h of drug exposure, the culture media were discarded and replaced with 100 μL of fresh medium. Afterwards, 50 μL of dissolved MTT in phosphate-buffered saline (PBS) solution (5 mg/mL) were added in each well and cells were incubated for 3 h at 37 °C, 5% CO2 in humidified air. Incubation time was followed by MTT discard and the addition of 100 μL of DMSO solvent so that the formazan crystals could be dissolved. The absorbance of the converted dye was immediately measured at a wavelength of 540 nm on an ELISA reader (VersaMax Microplate Reader, Orleans, CA, USA).
(§4) The in vitro anticancer effect of a tested compound on cell viability was determined by three dose–response parameters termed GI50, TGI, and IC50. More specifically, the GI50 value indicates the required concentration of the compound that impels 50% cell growth inhibition, the TGI value corresponds to the concentration that induces 100% cell growth inhibition, and the IC50 value is the concentration that causes 50% cell death. The two parameters GI50 and TGI represent the cytostatic activity, whereas IC50 reflects the cytotoxic effect of a drug. To estimate the three parameters, nine absorbance measurements were required including control 24 h (Ct24), control 72 h (Ct72), and the mean of cell survival in all seven drug concentrations (Tt72). The percentage growth inhibition was calculated according to National Cancer Institute’s (NCI) protocol: [(Tt72x) − (Ct24)/(Ct72) − (Ct24)] × 100 for concentrations for which Tt72x > Ct24 and [(Tt72x) − (Ct24)/Ct24] × 100 for concentrations for which Tt72x < Ct24. GI50 was calculated from [(Tt72x) − (Ct24)/(Ct72) − (Ct24)] × 100 = 50, TGI was calculated from [(Tt72x) − (Ct24)/(Ct72) − (Ct24)] × 100 = 0, and IC50 was calculated from [(Tt72x) − (Ct24)/Ct24] × 100 = 50. All the experiments were carried out in triplicate.

[1] = tested on: HT-29 human tumor (colorectal adenocarcinoma) xenograft; experiment: In vivo antitumor activity, HT-29 xenograft; details: HT-29 xenograft in CB17 SCID mice; for volume size of the tumors: eighteen days after single i.p. dose at LD10; for tumor inhibition (TI): single i.p. dose at LD10
Description: CB17 severe combined immunodeficient (SCID) male and female mice were used for toxicity and antitumor activity studies. Mice were obtained from National Center for Scientific Research (NCSR) Demokritos, Institute of Biology, Athens, Greece. CB17 SCID mice were fed water and an irradiated standard rodent diet ad libitum and housed under specific pathogen-free conditions. For ethical reasons, the weight and tumor volumes of the animals were measured twice a week during the experiment. In case of cachexia, suffering, or increase in the tumor volume up to 2000 mm^3, the animals were sacrificed by cervical disruption. The protocol was approved by the ethical committee of the National and Kapodistrian University of Athens and was conducted according to the European Directive 86/609/EEC guidelines for the care and use of laboratory animals. The study received a permit from the Veterinary Directorate of the Prefecture of Athens (approval #: 2023/2017) according to the Greek legislation conforming to the 2010/53/ EU Council Directive.
HT-29 (human colorectal adenocarcinoma) tumor volume was developed by subcutaneously implanting 2 × 10^6 HT-29 cells/mouse in the right hind flank. In vivo antitumor activity was investigated in 22 mice, of which 7 mice served as the common control group and the 15 remaining mice were divided into three groups of 5 mice. Therefore, each derivative was administered in a group of five mice. The animals were randomized into test groups on day 28 when their tumor volumes were in the 150–200 mm^3 range. After randomization, the mice were treated intraperitoneally (day 1) with the tested compounds (KA25, KA26, and KA39) as a single dose LD10. The control group received saline buffer (0.2 mL).
The tumor volumes were measured using an analogue caliper twice a week starting on the first day of treatment. To determine the volume (mm^3) of each tumor in an animal, the following formula was used: (D × d^2/2), where D and d refer to the larger and smaller perpendicular dimensions collected at each measurement, respectively. The diameters were determined from two orthogonal measurements on each tumor. The mean tumor volume was determined by average all tumor volumes in each group. The weekly mean tumor area change was determined and tumor inhibition (TI) was calculated by the formula: TI (%) = [1 − (TWT − TWZ)/[(TWC − TWZ)] × 100, where TWT is determined as the tumor area (mm^3) in treated animals at the time of evaluation, TWZ is determined as the tumor area (mm^3) at the time of initiation of treatment (zero time), and TWC is determined as the tumor volume (mm^3) in untreated animals (controls) at the time of evaluation. The animals were sacrificed when the tumor volume reached 2000 mm^3 (endpoint).

HT-29 = experiment: MTT in vitro antiproliferative assay, HT-29; assay type: cell-based, human; details: HT-29, MTT; for IC50 / GI50: Homo sapiens; for IC50: 48 h, 50% cell death, read-out: IC50; for GI50: read-out: GI50
Source text: as §1, §2, §3, §4

PC-3 = experiment: MTT in vitro antiproliferative assay, PC-3; assay type: cell-based; details: Homo sapiens, PC-3, MTT; for IC50: 48 h, 50% cell death, read-out: IC50; for GI50 / IC (TGI): 48 h drug exposure; for GI50: read-out: GI50; for IC (TGI): read-out: TGI
Source text: as §1, §2, §3, §4

SW403 = experiment: MTT in vitro antiproliferative assay, SW403; assay type: cell-based, human; details: for TGI: 48 h drug exposure; for IC50 / GI50: Homo sapiens; for IC50: SW-403, 48 h, 50% cell death; for GI50: SW-403, 48 h drug exposure
Source text: as §1, §2, §3, §4

LS174T = experiment: MTT in vitro antiproliferative assay, LS174T; assay type: cell-based, human; details: for TGI / GI50: 48 h drug exposure; for IC50 / GI50: Homo sapiens; for IC50: 48 h, 50% cell death
Source text: as §1, §2, §3, §4

Row | Compound | TGI (DU-145) [μΜ] | IC50 (DU-145) [µM] | GI50 (DU-145) [µM] | volume size of the tumors [1] [mm^3] | tumor inhibition (TI) [1] [%] | IC50 (HT-29) [µM] | GI50 (HT-29; 48 h drug exposure) [µM] | IC50 (PC-3) [µM] | GI50 (PC-3) [µM] | IC (TGI) (PC-3) [µM] | TGI (SW403) [μΜ] | IC50 (SW403) [µM] | GI50 (SW403) [µM] | TGI (LS174T) [μΜ] | IC50 (LS174T) [µM] | GI50 (LS174T) [µM] | TGI (HT-29; 48 h drug exposure) [μΜ]
1 | COc1cc(Cc2nnc3sc(C=Cc4ccc(F)cc4)nn23)c(S(=O)(=O)N(C)C)cc1OC [KA25] | 13.2 ± 0.5 | 27 ± 0.3 | 12.8 ± 1.3 | 521.6 ± 101.6 | 62.1 | > 100 | 1 ± 0.3 | > 100 | 14 ± 1 | 22 ± 0.8 | >100 | > 100 | 4.8 ± 0.8 | 100 ± 0.1 | > 100 | 9.3 ± 2 | –
2 | COc1cc(Cc2nnc3sc(C=Cc4ccc(Cl)cc4)nn23)c(S(=O)(=O)N(C)C)cc1OC [KA26] | 70 ± 1.3 | > 100 | 7 ± 1 | 528.5 ± 167.7 | 62.4 | > 100 | 2 ± 0.76 | > 100 | 42.5 ± 1.5 | > 100 | >100 | > 100 | 11 ± 0.8 | >100 | > 100 | 8 ± 1.5 | –
3 | COc1cc(Cc2nnc3sc(-c4cc([N+](=O)[O-])ccc4[N+](=O)[O-])nn23)c(S(=O)(=O)N(C)C)cc1OC [KA39] | 8 ± 0.4 | 10.3 ± 1.8 | 5.8 ± 0.2 | 489.17 ± 81.5 | 67.6 | 19.5 ± 0.9 | 11.5 ± 0.8 | 12 ± 0.1 | 5 ± 0.15 | 8 ± 0.1 | 7.9 ± 0.7 | 10 ± 0.76 | 5.2 ± 0.2 | 17 ± 1.3 | 21.5 ± 1.5 | 12 ± 1.5 | 15.9 ± 0.55
